One series has as its system stress ulcer. The series is described as follows: WIS: Restraint and Water Immersion Stress-Induced Ulcer Inhibition Test. Particulars: rat, 100 mg/kg oral, 7 h water immersion stress; read-out: ulcer formation inhibitory rate (WIS). It is filed as in vivo, male Crj:SD or Slc:SD rats. The protocol:
WIS: Restraint and Water Immersion Stress-Induced Ulcer Inhibition Test
The degree of inhibition of the stress ulcer formation is tested.
Male Crj:SD or Slc:SD rats (6 to 7-week-old) were fasted overnight, but allowed free access to water. Each group has 5 to 8 of these rats. The sample compound was dissolved or suspended in an aqueous solution of 0.3% sodium carboxymethylcellulose or 0.05% Tween 80 and then was orally administered (100 mg/10 ml/kg. To a control group, the vehicle was administered. 10 minutes later, the rats were placed in a stress cage and immersed to the level of xipfoid process in a water bath (21° C.) for 7 hours. At the end of the stress, the rats were sacrificed by inhalation of ether or carbon dioxide. Then, the stomach of each was removed, inflated by injecting 10 ml of 5% formalin neutral buffer solution, and immersed in 1% formalin neutral buffer solution for 30 minutes or more to be fixed. The stomach was incised along the greater curvature and then the length of each erosion in the glandular portion was determined under dissecting microscope. The sum of the length of erosions per stomach was defined as ulcer index (UI).
The effect obtained when 100 mg/kg of the sample compound had been administered was expressed as ulcer formation inhibitory rate (%) as follows:
ulcer formation inhibitory rate (%)=(1-(UI in sample group/UI in control group))×100

The nature of series [1]: MTT: Cell Damaging and Protecting Effect Test. It is filed as cell-based, male Japanese White rabbit. Conditions: rabbit, gastric mucosa cells, final concentration 10^-4 M, smaller value is better, read-out: cell damaging rate (MTT). The text has this: MTT: Cell Damaging and Protecting Effect Test
It is confirmed that there is no toxicity in cell level. Those having a toxicity in cell level are inappropriate as an anti-ulcer drug.
A male Japanese White rabbit (2.5 to 3 kg) was anesthetized to death by Nembutal™ and, immediately thereafter, its stomach was removed. The greater curvature of the stomach was incised so as to remove the stomach contents therefrom. After the mucosal surface was washed with HBSS (Hanks' Balanced Salt Solution), the stomach in ice-cooled HBSS was transferred to a laboratory. Then, after the pyloric antrum was removed, the gastric corpus mucosa was separated by a spatula and then minced into 2 to 3 mm^3 pieces in BME (Basal Medium Eagle). Thereafer, these pieces were shaken at 120 to 130 cycles/minute for 15 minutes at 37° C. in BME 60 ml containing 280 U/ml of dispase and 30 to 50 U/ml of collagenase. Here, the concentration of collagenase was appropriately changed for each lot in view of the state of cells. The pieces were washed twice with EBSS (Earle's Balanced Salt Solution) containing 1 mM of EDTA and then shaken in MEM (Minimum Essential Medium) containing 1 mM of EDTA at 37° C. for 5 minutes. Subsequently, they were shaken in the dispase and collagenase having the same concentrations as those mentioned above for 15 minutes so as to remove the supernatant and then further shaken at 37° C. for 50 to 60 minutes at 120 to 130 cycles/minute. Then, after being washed twice with HBSS, Ham F12 containing 2% of Ultrocer G™ was used to attain the concentration of 1×10^6 cells/ml. Thus formed suspension was dispensed in each well of a 96-well plate by 200 μl. The plate was incubated in the atmosphere composed of 5% CO2 and 95% air at 37° C. for three days so as to attain a confluent state and then subjected to MTT assay.
The sample compound was dissolved in DMSO so as to attain a concentration of 10^-2 M and then diluted with HBSS containing 2% of Ultrocer G™ so as to attain a final concentration of 10^-4 M. To each group, which 8 wells were used for, 10 μl of MTT reagent was added immediately after 100 μl of the medium in each well was exchanged for same volume of the resulting solution of the sample compound. After being incubated in an atmosphere composed of 5% CO2 and 95% air at 37° C. for 4 hours, thus formed solution was centrifuged and then its supernatant was discarded. Subsequently, 100 μl of 100% ethanol was added to the residue so as to dissolve MTT formazan. Then, the absorbance (OD: 570 to 630) was measured by a microplate reader. This method utilizes a phenomenon in which MTT is changed to MTT formazan only by mitochondria of living cells so as to change color.
The cell damaging or cell protecting effect of the sample compound at the final concentration of 10^-4 M was expressed as cell damaging rate (%) as follows:
cell damaging rate (%)=(1-(absorbance in sample group/absorbance in control group))×100
Accordingly, the smaller value is better in the cell damaging rate.

Take `CCN1CCCC1CNC(=O)c1ccc(OCC=C(C)C)c(OCC=C(C)C)c1` (stereo not drawn) [Example 7, 1-ethyl-2-(3,4-diprenyloxybenzoylaminomethyl)pyrrolidine]: the inhibition in vivo at 100 mg/kg in the series with stress ulcer stood at 92%. Moreover, the cytotoxicity at 4 h, 100 µM in series [1] amounted to 28%.
As for `CCN1CCCC1CNC(=O)c1cc(OC/C=C(\C)CCC=C(C)C)ccc1OC/C=C(\C)CCC=C(C)C` (stereo not drawn) [Example 10, 1-ethyl-2-(2,5-digeranyloxybenzoylaminomethyl)pyrrolidine], in the series with stress ulcer, the inhibition in vivo at 100 mg/kg turned out to be 74%. The cytotoxicity at 4 h, 100 µM in series [1] was determined as 15%.
The corresponding values for `CCN1CCCC1CNC(=O)c1cc(OCC=C(C)C)ccc1OCC=C(C)C` (stereo not drawn) [Example 6, 1-ethyl-2-(2,5-diprenyloxybenzoylaminomethyl)pyrrolidine] are 84% and 34%.
